# Laboratory results from PubChem BioAssay AID2305 (GlaxoSmithKline (GSK), 2010).
# pIC50: −log10 of the molar value.
# System: P. falciparum 3D7 growth, pLDH absorbance
# Test: P. falciparum 3D7 growth inhibition, dose response, strain 3D7 (AID 2305)
row,SMILES,pIC50
1,O=C(CCCC(=O)Nc1ccc(C2=NCCN2)cc1)Nc1ccc(C2=NCCN2)cc1,6.96
2,COc1ccc2nccc([C@@H](O)CN3CCC(NC(=O)c4cc5cccnc5[nH]4)CC3)c2c1,6.05
3,Cn1c(-c2ccccc2)cc2c3c(=O)cc(C(F)(F)F)[nH]c3ccc21,6.07
4,Cc1cccc(-c2cccc3c(NC(=O)N4CCc5cc6nccc(N7CCN8CCC[C@H]8C7)c6cc54)cccc23)n1,6.04
5,Cc1nnsc1C(=O)Nc1cccc(-c2ccc(-c3nc4ccc(F)cc4[nH]3)cc2)c1,7.00
6,CC(C)C[C@@H](C(=O)N[C@H](C(=O)Nc1nccs1)C(C)(C)C)[C@H](CCC(F)(F)F)N(O)C=O,6.22
7,CN1CC[C@@H](Oc2cc(NC(=O)Nc3ccccc3Br)ccc2Cl)C1,5.96
8,CCc1nc2nc(C)cc(Nc3cc(C)cc(C)c3)n2n1,6.54
9,O=S(=O)(NC1CCN(c2ccnc3cc(Cl)ccc23)C1)c1cccs1 (centres undefined),6.15
10,CCCOc1cc(OCCC)cc(-c2cc(=O)c3ccccc3[nH]2)c1,7.22
11,CC1CCN(Cc2cccc(C(=O)NCc3ccc(F)c(-c4cccc(CN5CCN[C@@H](C)C5)c4)c3)c2)CC1,5.84
12,Clc1cc(Nc2ccnc3ccc(Br)cc23)ccc1Oc1ccc2ccccc2c1Cl,6.14
13,COc1ccc(NC(=O)[C@H](CC(C)C)Nc2cc(C)nc(NCCOc3ccccc3)n2)cc1,6.10
14,CN(Cc1cnc2nc(N)nc(N)c2n1)c1ccc(C(=O)N[C@H](CCC(=O)O)C(=O)O)cc1,7.00
15,COc1ccc(N2C(=O)c3c(c4ccccc4n3C)C2c2ccccc2O)cc1 (centres undefined),6.92
16,O=C(Nc1ccc2oc(-c3ccc(Br)cc3)nc2c1)c1ccc([N+](=O)[O-])o1,6.01
17,O=C(NC(=O)c1ccccc1)NC1CCN(c2ccnc3cc(Cl)ccc23)C1 (centres undefined),6.24
18,Cn1cncc1C(=O)Nc1cccc(-c2ccc(-c3nc4ccc(F)cc4[nH]3)cc2)c1,6.14
19,Cc1cc(Cl)ccc1NC(=O)Nc1ccc2nccc(N3CCN(C)CC3)c2c1,6.41
20,Cc1nc(/N=C(\N)NC(=O)NC2CCCCC2)nc2ccccc12,6.10

row,SMILES,pIC50
1,Cc1nc2c(c(O)c1Cl)-c1ccc(Oc3cccc(C(F)(F)F)c3)cc1C2=O,7.40
2,O=C(O)c1ccc(NC(=O)C2CC(=O)N(Cc3ccc(Cl)cc3)C(=Nc3ccc(Cl)cc3)S2)cc1 (centres undefined),6.28
3,Cc1ccc(NC(=O)C(C)Sc2n[nH]c(-c3ccccc3Br)n2)cc1 (centres undefined),5.96
4,CC1(C)N=C(N)N=C(N)N1OCCNCc1ccc(Cl)cc1,6.80
5,Cc1ccc(C)c(NC(=O)CC2C(=O)N(c3ccccc3)C(=S)N2Cc2ccco2)c1 (centres undefined),6.24
6,COc1ccc2nccc([C@H](O)CN3CCC(NCc4nc5c(F)cccc5[nH]4)CC3)c2c1,6.15
7,Oc1ccc2ccccc2c1C=NNc1nc(Nc2ccccc2)nc(Nc2ccccc2)n1,6.17
8,O=C(Cc1cc(F)cc(F)c1)NC1CCN(c2ccnc3cc(Cl)ccc23)C1 (centres undefined),6.60
9,O=C(O[C@@H]1CN[C@H](C#Cc2cc3ncnc(Nc4ccc5c(cnn5Cc5cccc(F)c5)c4)c3s2)C1)N1CCCC1,6.12
10,CCN1CCN(CCCNc2c3ccccc3nc3ccccc23)CC1,6.10
11,Clc1cccc(Cl)c1CCNCC1CCN(CC2CCCCC2)CC1,6.68
12,O=C(NCCN1CCC(NC(=O)c2ccc(-c3ccccn3)s2)CC1)c1cccc(C(F)(F)F)c1,6.07
13,CC(C)CNc1c2c(nc3cnn(-c4c5c(nc6cn[nH]c46)CCCC5)c13)CCCC2,6.10
14,CCCc1cc(N2CCC(N3CCCC3)CC2)nc(Nc2ccc(OC)cc2)n1,6.09
15,Cc1ccc(NC(=O)c2ccc(CN3CCCN(Cc4cccc(O)c4)CC3)cc2)cc1C,6.07
16,COc1ccc(NC(=O)[C@H](CC(C)C)Nc2cc(C)nc(NCCc3ccccc3)n2)cc1,6.05
17,CCNc1cc(C(=O)N[C@@H](Cc2ccccc2)[C@H](O)CNC(C)(C)CSCC(C)C)cc(N2CCCC2=O)c1,6.59
18,CC1(CCc2ccccc2)N=C(N)N(Cc2ccccc2)C(=O)C1c1ccc(Cl)c(Cl)c1 (centres undefined),6.09
19,CSC1=NC2(CC(c3cccc(C)c3)c3cc(Cl)c(O)cc3O2)CC(C)(C)N1 (centres undefined),6.06
